For two compounds, IC50 results are on record in patent US20080146555A1, “Uses of Kinase Inhibitors and Compositions Thereof” (GPC Biotech, Inc, priority 2004, published 2008).

Molecules are shown by their SMILES. Counter-ions that a name gives are not always drawn. Like-named read-outs stand apart in the source and are kept apart here. Bounds are passed on as bounds.

The target in one assay is T1, c-Src (Homo sapiens, UniProt P12931).
T1 construct: purchased Upstate 14-326
The assay is described as follows: c-Src kinase assay. Format: biochemical. As for the experimental part:
• 1. Src Kinase Reaction Buffer (SrcRB), Catalog #20-121: 100 mM Tris-HCl, pH 7.2, 125 mM MgCl2, 25 mM MnCl2, 2 mM EGTA, 0.25 mM sodium ortovanadate, 2 mM dithiothreitol. • 2. [γ-^32P]ATP: Stock 1 mCi/100 μl (3000 Ci/mmol, obtained from DuPont-NEN). Make 10 μl aliquots (100 μCi/vial). Before starting the assay dilute an aliquot to 1 μCi/μl with 90 μl of 500 μM unlabeled ATP containing 75 mM MnCl2 20 mM MOPS, pH 7.2, 25 mM β-glycerophosphate, 5 mM EGTA, 1 mM Na3VO4, 1 mM dithiothreitol. • 3. Src Kinase Substrate Peptide (Catalog #12-140): Use a 0.6-1.5 mM stock. Rehydrate 1 mg peptide with […] distilled water or SrcRB for a 1.5 mM stock or with 998 μl for a 0.6 mM stock. • 4. Src, active: Use 20-80 Units per assay point. Dilute as required with SrcRB.
• 1. Add 10 μl of SrcRB into a microfage tube. • 2. Add 10 μl Src Kinase substrate peptide (93-375 μM/assay). • 3. Add 4-16 μl of Src, active (20-80 Units/assay). • 4. Add 10 μl of the diluted [γ-^32P]ATP. • 5. Incubate for 10 minutes at 30° C. • 6. Add 20 μl of 40% TCA and incubate for 5 minutes at room temperature. • 7. Transfer 25 μl to the center of a 2 cm×2 cm P81 paper square. • 8. Wash the assay squares five times for 5 minutes each with 0.75% phosphoric acid. • 9. Wash the assay squares once with acetone for 5 minutes. • 10. Transfer the assay squares to a scintillation vial and add 5 ml scintillation cocktail. • 11. Read in scintillation counter. Compare cpm of enzyme samples to cpm of control samples that contain no enzyme (background control).

In a further assay the target is T2, c-Kit (Homo sapiens, UniProt P10721).
T2 construct: purchased ProQinase (printed 'ProQuinase', Freiburg, Germany)
The assay is described as follows: c-Kit kinase assay (ProQinase). Format: biochemical. Particulars: read-out: KIT Inhibition (IC50). As for the experimental part:
• c-kit can be assayed, for example, using the PanQinase Activity Assay or ProQuinase (Freiburg, Germany). Briefly:
Assay buffer-60 mM HEPES-NaOH, pH 7.5, 3 mM MgCl2, 3 mM MnCl2, 3 uM Na-orthovanadate, 1.2 mM DTT, 50 ug/ml PEG 20000, 1 uM [γ-^33P] ATP (approx. 5×10^5 cpm per well) • Reaction cocktail-20 ul assay buffer, 5 ul ATP, 5 ul test compound (in 10% DMSO), 10 ul substrate/10 ul enzyme=100 ng (pre-mixed). • The reaction cocktails are incubated at 30° C. for 80 minutes and terminated with addition of 50 ul 2% H3PO4. The plates are aspirated and washed two times with 200 ul H2O or 200 ul NaCl. Incorporation of radiolabelled substrate is determined with a microplate scintillation counter such as described in the Technical Note above.

The subject of another assay is DNA replication. The assay is described as follows: Inhibition of DNA replication. Format: cell-based. Particulars: 24 hour incubation.
The next assay addresses Cdk5 (Homo sapiens, UniProt Q00535). Kind of assay: Cdk5 inhibition. Format: biochemical. From the text: Further inhibition results for subject compounds of the invention against other CDKs and further kinases are shown in Table 5, Table II and described in Example 6.
Table 3, Table 4, Table 5 and Table II show the results obtained for inhibition of a broad range of such kinases for subject compounds of the invention.

For the next assay, the system named is HCT-116 cells. The assay is described as follows: Clonogenic survival assay with HCT-116 cells. Format: cell-based. As to conditions: Homo sapiens, 24 hour compound exposure, read-out: Clonogenic survival IC50, HCT-116.
Setting [1] is: read-out: SRC Inhibition (IC50).

A word on the IC50: it is the concentration that gives 50% inhibition.

T1 sequence (P12931 whole entry): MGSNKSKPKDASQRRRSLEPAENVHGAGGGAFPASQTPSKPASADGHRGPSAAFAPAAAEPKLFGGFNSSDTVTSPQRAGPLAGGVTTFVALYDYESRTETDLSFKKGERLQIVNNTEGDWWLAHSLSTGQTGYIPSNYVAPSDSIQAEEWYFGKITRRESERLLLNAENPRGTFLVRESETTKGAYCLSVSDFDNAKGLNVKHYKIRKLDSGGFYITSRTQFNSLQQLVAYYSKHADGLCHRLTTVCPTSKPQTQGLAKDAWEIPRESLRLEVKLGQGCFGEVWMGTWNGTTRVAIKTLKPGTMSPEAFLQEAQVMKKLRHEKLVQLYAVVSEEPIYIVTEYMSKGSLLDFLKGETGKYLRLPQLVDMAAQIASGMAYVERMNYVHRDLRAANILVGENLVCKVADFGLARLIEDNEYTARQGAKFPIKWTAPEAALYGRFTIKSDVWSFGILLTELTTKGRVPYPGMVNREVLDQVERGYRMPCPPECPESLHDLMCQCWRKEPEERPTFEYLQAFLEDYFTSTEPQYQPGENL
T2 sequence (P10721 26-976): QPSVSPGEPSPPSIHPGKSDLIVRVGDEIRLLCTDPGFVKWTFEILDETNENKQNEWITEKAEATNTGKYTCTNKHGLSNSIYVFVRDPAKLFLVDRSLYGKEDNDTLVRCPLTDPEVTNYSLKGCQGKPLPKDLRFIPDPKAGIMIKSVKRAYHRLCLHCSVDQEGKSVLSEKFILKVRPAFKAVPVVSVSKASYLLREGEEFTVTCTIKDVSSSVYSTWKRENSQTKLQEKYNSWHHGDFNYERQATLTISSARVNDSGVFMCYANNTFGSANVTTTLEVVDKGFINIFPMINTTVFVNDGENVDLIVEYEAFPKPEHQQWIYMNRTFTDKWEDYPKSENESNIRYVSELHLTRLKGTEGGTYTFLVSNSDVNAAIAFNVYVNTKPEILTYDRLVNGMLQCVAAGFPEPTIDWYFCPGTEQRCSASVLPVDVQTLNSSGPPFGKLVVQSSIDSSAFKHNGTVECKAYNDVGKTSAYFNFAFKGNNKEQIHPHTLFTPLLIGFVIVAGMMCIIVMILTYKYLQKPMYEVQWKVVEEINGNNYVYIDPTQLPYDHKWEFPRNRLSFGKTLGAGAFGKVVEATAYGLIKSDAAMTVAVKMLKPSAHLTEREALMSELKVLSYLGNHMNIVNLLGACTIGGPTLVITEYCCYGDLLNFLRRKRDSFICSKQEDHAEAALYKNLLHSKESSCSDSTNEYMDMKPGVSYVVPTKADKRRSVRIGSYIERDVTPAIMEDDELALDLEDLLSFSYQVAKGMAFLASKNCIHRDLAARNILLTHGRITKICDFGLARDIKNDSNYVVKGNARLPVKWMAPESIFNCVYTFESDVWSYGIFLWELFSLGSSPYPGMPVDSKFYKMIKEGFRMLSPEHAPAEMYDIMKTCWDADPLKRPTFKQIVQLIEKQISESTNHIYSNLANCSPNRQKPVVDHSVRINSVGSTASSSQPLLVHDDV
Sequence of Cdk5 (Q00535 whole entry, species assumed): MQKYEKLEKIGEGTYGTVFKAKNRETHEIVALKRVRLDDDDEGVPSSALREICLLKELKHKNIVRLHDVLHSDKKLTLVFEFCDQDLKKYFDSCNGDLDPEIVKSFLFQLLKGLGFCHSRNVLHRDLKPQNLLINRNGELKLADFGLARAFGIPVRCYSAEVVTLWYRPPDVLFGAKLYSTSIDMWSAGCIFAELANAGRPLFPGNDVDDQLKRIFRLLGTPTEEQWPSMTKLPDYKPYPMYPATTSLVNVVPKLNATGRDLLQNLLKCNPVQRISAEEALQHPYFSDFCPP
Sequence of Cdk5 (Q15078 whole entry partner, species assumed): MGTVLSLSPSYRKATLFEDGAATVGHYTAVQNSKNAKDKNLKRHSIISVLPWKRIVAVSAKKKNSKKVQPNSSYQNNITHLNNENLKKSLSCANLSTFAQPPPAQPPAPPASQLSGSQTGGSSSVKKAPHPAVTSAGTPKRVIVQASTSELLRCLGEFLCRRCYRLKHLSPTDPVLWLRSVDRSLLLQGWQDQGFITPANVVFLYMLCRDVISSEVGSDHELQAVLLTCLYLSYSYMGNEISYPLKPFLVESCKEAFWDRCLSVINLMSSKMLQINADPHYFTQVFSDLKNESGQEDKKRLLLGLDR

Consider `CC(C)N1CCN(C(=O)COc2ccc(-c3n[nH]c4c3C(=O)c3c(NC(=O)NN5CCOCC5)cccc3-4)cc2)CC1` [Compound A37], for which the IC50 was less than 50 nM at c-Src (setting [1]); less than 500 nM at c-Kit; 16 nM in the assay with DNA replication; less than 5 nM at Cdk5; less than 50 nM in the assay on HCT-116 cells.
For `COCCN1CCN(Cc2ccc(-c3n[nH]c4c3C(=O)c3c(NC(=O)NN5CCOCC5)cccc3-4)cc2)CC1` [Compound B16, N-[3-(4-{[4-(2-methoxyethyl)piperazinyl]methyl}phenyl)-4-oxoindeno[2,3-d]pyrazol-5-yl](morpholin-4-ylamino)carboxamide dihydrochloride], the half-inhibitory concentration (IC50) at c-Src (kinase panel, 10 μM ATP, read-out: c-Src IC50) is less than 100 nM; at c-Src (setting [1]), less than 50 nM; on c-Kit it was less than 500 nM; in the assay with DNA replication it was 10 nM; at Cdk5 it was less than 5 nM; with HCT-116 cells it was less than 100 nM.
